ChEMBL document CHEMBL5532759, “Discovery of dibenzylbutane lignan LCA derivatives as potent anti-inflammatory agents” (RSC Med Chem, 2024)
Activity calls are given as the source filed them. No cut-off for these calls is given here.

Legend:
RAW264.7 [1] = experiment: Antiinflammatory activity in LPS-induced mouse RAW264.7 cells assessed as inhibition of NO release at 20 uM preincubated for 4 hrs followed by LPS addition for 24 hrs by Griess reagent based assay relative to control (reference value: 100 %); format: functional; design: scale not given: the % may be the effect or the level left; settings: time 28 hrs
[2] = Cytotoxicity against mouse RAW264.7 cells assessed as survival rate at 20 uM incubated for 24 hrs by CCK-8 assay relative to control (reference value: 100 %); format: toxicity, cell-based; settings: read-out: Survival
RAW264.7 [3] = experiment: Antiinflammatory activity in LPS-induced mouse RAW264.7 cells assessed as inhibition of NO release preincubated for 4 hrs followed by LPS addition for 24 hrs by Griess reagent based assay; format: functional, cell-based; settings: dose 2.5-20 µM, time 28.0 hrs
Mus musculus [4] = experiment: Antiinflammatory activity against carrageenan-induced paw edema in ICR mouse assessed as inhibition of paw swelling at 20 mg/kg, ip measured after 120 min; format: functional, organism-based
Mus musculus [5] = experiment: Antiinflammatory activity against carrageenan-induced paw edema in ICR mouse assessed as reduction in paw thickness at 20 mg/kg, ip measured at 60 to 240 mins; format: functional, organism-based; settings: time 60-240 min
RAW264.7 [6] = experiment: Antiinflammatory activity in LPS-induced mouse RAW264.7 cells assessed as inhibition of TNFalpha secretion at 2.5 to 20 uM preincubated for 1 hr followed by LPS addition for 24 hrs by ELISA method; format: functional, cell-based; settings: dose 2.5-20 µM, time 25.0 hrs
RAW264.7 [7] = experiment: Antiinflammatory activity in LPS-induced mouse RAW264.7 cells assessed as inhibition of IL-1beta secretion at 2.5 to 20 uM preincubated for 1 hr followed by LPS addition for 24 hrs by ELISA method; format: functional, cell-based; settings: dose 2.5-20 µM, time 25.0 hrs
Mus musculus [8] = experiment: Antiinflammatory activity against carrageenan-induced paw edema in ip dosed ICR mouse assessed as reduction in TNF-alpha level by ELISA method; format: functional, organism-based; settings: dose 5-20 mg/kg
RAW264.7 [9] = experiment: Inhibition of NF-kB signaling in LPS-induced mouse RAW264.7 cells assessed as reduction in p65 phosphorylation preincubated for 1 hr followed by LPS addition for 1 hr by Western blot analysis; format: cell-based; settings: dose 10-20 µM, time 2.0 hrs
Mus musculus [10] = experiment: Antiinflammatory activity against carrageenan-induced paw edema in ICR mouse assessed as inhibition of paw swelling at 5 to 20 mg/kg, ip measured after 120 min; format: functional, organism-based; settings: dose 5-20 mg/kg
RAW264.7 [11] = experiment: Inhibition of NF-kappaB signaling in LPS-induced mouse RAW264.7 cells assessed as reduction in IkBalpha degradation preincubated for 1 hr followed by LPS addition for 1 hr by Western blot analysis; format: cell-based; settings: dose 10-20 µM, time 2.0 hrs
RAW264.7 [12] = experiment: Antiinflammatory activity in LPS-induced mouse RAW264.7 cells assessed as reduction in IL-1beta mRNA level preincubated for 1 hr followed by LPS addition for 24 hrs by RT-qPCR analysis; format: functional, cell-based; settings: dose 10-20 µM, time 25.0 hrs
RAW264.7 [13] = experiment: Antiinflammatory activity in LPS-induced mouse RAW264.7 cells assessed as reduction in TNFalpha mRNA level incubated for 1 hr followed by LPS addition for 24 hrs by RT-qPCR analysis; format: functional, cell-based; settings: dose 10-20 µM, time 25.0 hrs
RAW264.7 [14] = experiment: Inhibition of NF-kB p65 nuclear translocation from cytoplasm to nucleus in mouse RAW264.7 cells at 20 uM preincubated for 1 hr followed by LPS addition for 4 hrs by immunofluorescence assay; format: functional, cell-based; settings: time 5.0 hrs
RAW264.7 [15] = experiment: Antiinflammatory activity in LPS-induced mouse RAW264.7 cells assessed as inhibition of IL-6 secretion at 2.5 to 20 uM preincubated for 1 hr followed by LPS addition for 24 hrs by ELISA method; format: functional, cell-based; settings: dose 2.5-20 µM, time 25.0 hrs
RAW264.7 [16] = experiment: Antiinflammatory activity in LPS-induced mouse RAW264.7 cells assessed as reduction in IL-6 mRNA level preincubated for 1 hr followed by LPS addition for 24 hrs by RT-qPCR analysis; format: functional, cell-based; settings: dose 10-20 µM, time 25.0 hrs
Mus musculus [17] = experiment: Antiinflammatory activity against carrageenan-induced paw edema in ICR mouse assessed as reduction in paw thickness at 5 to 20 mg/kg, ip measured at 60 to 240 mins; format: functional, organism-based; settings: dose 5-20 mg/kg, time 60-240 min
Mus musculus [18] = experiment: Antiinflammatory activity against carrageenan-induced paw edema in ip dosed ICR mouse assessed as reduction in IL-1beta level by ELISA method; format: functional, organism-based; settings: dose 5-20 mg/kg
Mus musculus [19] = experiment: Antiinflammatory activity against carrageenan-induced paw edema in ip dosed ICR mouse assessed as reduction in IL-6 level by ELISA method; format: functional, organism-based; settings: dose 5-20 mg/kg

Row | SMILES | Activity (RAW264.7 [1]) | viability at 24 h, 20 µM [2] | other results
1 | COc1cc(C[C@H](C(=O)NCc2ccncc2F)[C@@H](Cc2cc(OC)c(O)c(OC)c2)C(=O)NCc2ccncc2F)cc(OC)c1O | 67.9% | 95.9% | 
2 | COc1cc(C[C@H](C(=O)NCc2cc(F)cc(F)c2)[C@@H](Cc2cc(OC)c(O)c(OC)c2)C(=O)NCc2cc(F)cc(F)c2)cc(OC)c1O | 43.9% | 97.8% | 
3 | COc1cc(/C=C/C(=O)OC[C@H](Cc2cc(OC)c(O)c(OC)c2)[C@@H](COC(=O)/C=C/c2ccc(O)c(OC)c2)Cc2cc(OC)c(O)c(OC)c2)ccc1O | 29.5% | 82.2% | inhibition (RAW264.7 [3]): Dose-Dependent Effect; inhibition (Mus musculus [4]): Active; Activity (Mus musculus [5]): Active
4 | COc1cc(C[C@H](C(=O)NCc2ncccc2C)[C@@H](Cc2cc(OC)c(O)c(OC)c2)C(=O)NCc2ncccc2C)cc(OC)c1O | 66.3% | 85.1% | 
5 | COc1cc(C[C@H](C(=O)NCc2cccnc2C(F)(F)F)[C@@H](Cc2cc(OC)c(O)c(OC)c2)C(=O)NCc2cccnc2C(F)(F)F)cc(OC)c1O | 55.1% | 90.7% | 
6 | C[C@@H]1C[C@H]2[C@@H]3CCC4=CC(=O)C=C[C@]4(C)[C@@]3(F)[C@@H](O)C[C@]2(C)[C@@]1(O)C(=O)CO [DEXAMETHASONE] | 45.9% | 94.8% | 
7 | COc1ccc(CNC(=O)[C@@H](Cc2cc(OC)c(O)c(OC)c2)[C@@H](Cc2cc(OC)c(O)c(OC)c2)C(=O)NCc2ccc(OC)cc2)cc1 | 45.9% | 99.9% | 
8 | COc1ccc(CNC(=O)[C@@H](Cc2cc(OC)c(O)c(OC)c2)[C@@H](Cc2cc(OC)c(O)c(OC)c2)C(=O)NCc2ccc(OC)cc2OC)c(OC)c1 | 47.6% | 98.4% | 
9 | COc1cc(C[C@H](C(=O)NCc2ccc(F)cc2F)[C@@H](Cc2cc(OC)c(O)c(OC)c2)C(=O)NCc2ccc(F)cc2F)cc(OC)c1O | 46.5% | 97.5% | 
10 | COc1cc(C[C@H](C(=O)NCc2ccc(C)cc2)[C@@H](Cc2cc(OC)c(O)c(OC)c2)C(=O)NCc2ccc(C)cc2)cc(OC)c1O | 47% | 95.6% | 
11 | COc1cc(C[C@H](C(=O)NCc2ccc(F)cn2)[C@@H](Cc2cc(OC)c(O)c(OC)c2)C(=O)NCc2ccc(F)cn2)cc(OC)c1O | 47.1% | 81.3% | 
12 | COc1cc(C[C@H](C(=O)NCc2ccc(S(C)(=O)=O)cc2)[C@@H](Cc2cc(OC)c(O)c(OC)c2)C(=O)NCc2ccc(S(C)(=O)=O)cc2)cc(OC)c1O | 63.1% | 70% | 
13 | COc1cc(C[C@H](C(=O)NCc2cccc(C)n2)[C@@H](Cc2cc(OC)c(O)c(OC)c2)C(=O)NCc2cccc(C)n2)cc(OC)c1O | 44.7% | 93.3% | 
14 | COc1cc(C[C@H](C(=O)NCc2ccc(C(F)(F)F)cc2)[C@@H](Cc2cc(OC)c(O)c(OC)c2)C(=O)NCc2ccc(C(F)(F)F)cc2)cc(OC)c1O | 31.1% | 99.1% | Activity (RAW264.7 [6]): Active; Activity (RAW264.7 [7]): Active; Activity (Mus musculus [8]): Dose-Dependent Effect; inhibition (RAW264.7 [9]): Dose-Dependent Effect; Activity (RAW264.7 [3]): Dose-Dependent Effect; inhibition (Mus musculus [10]): Active; inhibition (RAW264.7 [11]): Dose-Dependent Effect; Activity (RAW264.7 [12]): Dose-Dependent Effect; Activity (RAW264.7 [13]): Dose-Dependent Effect; inhibition (RAW264.7 [14]): Active; Activity (RAW264.7 [15]): Active; Activity (RAW264.7 [16]): Dose-Dependent Effect; Activity (Mus musculus [17]): Active; Activity (Mus musculus [18]): Dose-Dependent Effect; Activity (Mus musculus [19]): Dose-Dependent Effect
15 | COc1cc(C[C@H](C(=O)NCc2ccccc2F)[C@@H](Cc2cc(OC)c(O)c(OC)c2)C(=O)NCc2ccccc2F)cc(OC)c1O | 47.3% | 105% | 
16 | COc1cc(C[C@H](C(=O)NCc2ccncc2)[C@@H](Cc2cc(OC)c(O)c(OC)c2)C(=O)NCc2ccncc2)cc(OC)c1O | 46.5% | 69.5% | 
17 | COc1cc(C[C@H](C(=O)NCc2cccc(F)c2)[C@@H](Cc2cc(OC)c(O)c(OC)c2)C(=O)NCc2cccc(F)c2)cc(OC)c1O | 41.9% | 99.4% | 
18 | COc1cc(C[C@H](C(=O)NCc2ccccc2)[C@@H](Cc2cc(OC)c(O)c(OC)c2)C(=O)NCc2ccccc2)cc(OC)c1O | 42.6% | 103% | 
19 | COc1cccc(CNC(=O)[C@@H](Cc2cc(OC)c(O)c(OC)c2)[C@@H](Cc2cc(OC)c(O)c(OC)c2)C(=O)NCc2cccc(OC)c2)c1 | 44.2% | 100% | 
20 | COc1cc(C[C@H](C(=O)NCc2cc(C)ccn2)[C@@H](Cc2cc(OC)c(O)c(OC)c2)C(=O)NCc2cc(C)ccn2)cc(OC)c1O | 71.5% | 83% | 
21 | COc1cc(C[C@H](C(=O)NCc2ccccn2)[C@@H](Cc2cc(OC)c(O)c(OC)c2)C(=O)NCc2ccccn2)cc(OC)c1O | 48.1% | 92.2% | 
22 | COc1cc(CNC(=O)[C@@H](Cc2cc(OC)c(O)c(OC)c2)[C@@H](Cc2cc(OC)c(O)c(OC)c2)C(=O)NCc2cc(OC)cc(OC)c2)cc(OC)c1 | 49.3% | 99.1% | 
23 | COc1cc(C[C@H](C(=O)NCc2ccc(F)cc2)[C@@H](Cc2cc(OC)c(O)c(OC)c2)C(=O)NCc2ccc(F)cc2)cc(OC)c1O | 43.1% | 103% | 
24 | COc1cc(C[C@H](C(=O)NCc2cccnc2OC)[C@@H](Cc2cc(OC)c(O)c(OC)c2)C(=O)NCc2cccnc2OC)cc(OC)c1O | 51.1% | 69.9% | 
25 | COc1cc(CNC(=O)[C@@H](Cc2cc(OC)c(O)c(OC)c2)[C@@H](Cc2cc(OC)c(O)c(OC)c2)C(=O)NCc2ccc(O)c(OC)c2)ccc1O | 49% | 96.6% | 
